Consider 23 molecules from ChEMBL document CHEMBL1124307, “Synthesis and beta-adrenergic antagonism of 2-(aryloxy)-1-(2-piperidyl)ethanols” (J Med Chem, 1988).

Calls of active or inactive are those of the source. The calls are words filed in the database; no cut-off is given here.

For one test, the species on record is Cavia porcellus. The experiment in a line: Antagonism ([…] blocking activity) of isoprenaline-induced positive inotropic effect in guinea pig left atrium; Inactive. It is filed as functional. Conditions: Cardiac atrium.
Turning to `O[C@H](COCCCc1ccccc1)[C@H]1CCCCN1` (relative stereo), the pA2 entry was “inactive”.

The species named for a further test is Cavia porcellus. Description: Selectivity of inhibition at beta-1 versus beta-2 adrenergic receptors, […].
Settings: not given
With `CC(C)N(C)CC(O)COc1ccccc1` (stereo not drawn), the Ratio was 2.2.
Same read-out and setting: the value for `CC(C)NCC(O)COCCCc1ccccc1` (stereo not drawn) was 0.5.
The same measure, in the same setting: the value for `CC(C)NCC(O)COCc1ccccc1` (stereo not drawn) was 1; that for `CC(C)NCC(O)COc1ccc2ccccc2c1` (stereo not drawn) was 0.9; that for `CC(C)NCC(O)COc1ccccc1` (stereo not drawn) was 8.1.
`CN1CCCC[C@@H]1[C@H](O)COc1ccccc1`: the Ratio turned out to be 0.7.
Take `Cc1ccc(OCC(O)CNC(C)C)cc1` (stereo not drawn): the Ratio worked out at 1.8.
Take `Cc1cccc(OCC(O)CNC(C)C)c1` (stereo not drawn): the Ratio is 6.5.
Regarding `CN1CCCC[C@H]1[C@H](O)COc1ccccc1` (relative stereo), the Ratio came out at 1.4.
The same measure, in the same setting: to `Cc1ccc(OC[C@@H](O)[C@@H]2CCCCN2)cc1` (relative stereo) belongs 0.8.
As for `Cc1ccc(OC[C@@H](O)[C@H]2CCCCN2)cc1` (relative stereo), the Ratio is 1.2.
Same read-out and setting: the value for `Cc1cccc(OC[C@@H](O)[C@@H]2CCCCN2)c1` (relative stereo) was 0.03.
The same measure, in the same setting: the value for `Cc1cccc(OC[C@@H](O)[C@H]2CCCCN2)c1` (relative stereo) was 0.5; that for `O[C@H](COCCCc1ccccc1)[C@@H]1CCCCN1` (relative stereo) was 0.1.
`O[C@H](COCc1ccccc1)[C@@H]1CCCCN1` (relative stereo): the Ratio was 2.5.
Still for that read-out and setting: to `O[C@H](COCc1ccccc1)[C@H]1CCCCN1` (relative stereo) belongs 0.4; to `O[C@H](COc1ccc2ccccc2c1)[C@@H]1CCCCN1` (relative stereo), 1.8; to `O[C@H](COc1ccc2ccccc2c1)[C@H]1CCCCN1` (relative stereo), 2.
On the same count and under the same terms, to `O[C@H](COc1cccc2ccccc12)[C@@H]1CCCCN1` (relative stereo) belongs 0.4; to `O[C@H](COc1cccc2ccccc12)[C@H]1CCCCN1` (relative stereo), 0.7; to `O[C@H](COc1ccccc1)[C@@H]1CCCCN1` (relative stereo), 1.7.
For `O[C@H](COc1ccccc1)[C@H]1CCCCN1` (relative stereo), the Ratio was found to be 0.7.
